The values below come from US5948786A, “Piperidinylpyrimidine derivatives” (Sumitomo Pharmaceuticals Company, Limited, priority 1996, dated 1999).

The subject of this experiment is TNF α production from mouse macrophages. As to the kind of experiment: Inhibitory activity of compound on TNF α Production from mouse macrophages (LPS-induced PEC's). Type of experiment: cell-based. To be noted: Macrophage, LPS 10 μg/ml, 18 hours. The method, then:
BALB/c mice (female, 5-7 weeks old, Charles River Japan, Tokyo, Japan) were injected i.p. with 1 ml of 2.4% thioglycollate broth. After 4 days, the mice were sacrificed. Peritoneal exudated cells (PEC's) were collected from the peritoneal cavity by washing with minimum essential medium (MEM, Handai biseibutubyou kenkyukai, Osaka, Japan) containing 5 U/ml heparin, 1% fetal bovine serum (FBS, Filtron, Victoria, Australia) and antibiotics. The cells were washed two times with MEM, suspended with MEM containing 10% FBS (complete MEM, cMEM) and seeded into 96-well culture plates (Costar, Cambridge, Mass., USA) at 2×10^5 cells/well. The cells were incubated for 1 hour at 37° C. in a humidified 5% CO2 incubator and washed two times to remove non-adherent cells.
TNF α was induced by 10 μg/ml of LPS (E. coli O111B4, DIFCO, Detroit, Mich., USA) the cells were cultured for 18 hours at 37° C. A compound of the present invention was dissolved in DMSO and added to the culture simultaneously with LPS. The final DMSO concentration was below 0.1%. The TNF α concentration in supernatant and recombinant mouse TNF α standard (rm-TNF α, Genzyme, Mass., USA) were incubated overnight at 4° C. in a 96-well plate coated with anti-mouse TNF α monoclonal antibody (PharMingen, San Diego, Calif., USA) that previously had been blocked with 10% FBS. Each well of the plate first was incubated at room temperature with biotinylated anti-mouse TNF α polyclonal antibodies (PharMingen) for 45 minutes, then with peroxidase-conjugated streptavidin (Kirkegaard & Perry Laboratories Inc., Gaitherburg, Md., USA) for 30 minutes. After each incubation, the plate was washed 4 to 8 times with PBS containing 0.2% Tween 20. TMB (Kirkegaard & Perry Laboratories Inc.) was the peroxidase substrate used and, the absorbance of each well was quantified at 450 nm by a microplatereader (Molecular Devices Corp., CA, USA). TNF α levels in the supernatant were quantified with rm-TNF α as the standard.

The inhibition is the drop in the measured response relative to a control, in per cent.

Take `CCCCCCCCC(=O)N1CCC(c2nc(N)nc3ccc(OC)cc23)CC1` [Example 105]: the inhibition at 30 µM was 54%.
Turning to `COc1ccc(CC(=O)N2CCC(c3cc(-c4ccc(OC)cc4)nc(N)n3)CC2)cc1` [Example 158], the inhibition at 30 µM was found to be 61%.
Turning to `COc1ccc(Cc2cc(C3CCN(C(=O)c4ccc(Cl)cc4Cl)CC3)nc(N)n2)cc1` [Example 204], the inhibition at 30 µM turned out to be 84%.
Take `COc1ccc(Cc2cc(C3CCN(C(=O)NCc4ccccc4)CC3)nc(N)n2)cc1` [Example 283, 2-amino-4-(1-benzylcarbamoyl-4-piperidinyl)-6-(4-methoxyphenylmethyl)pyrimidine]: the inhibition at 30 µM came to 81%.
The value for `COc1ccc(Cc2cc(C3CCN(C(=O)c4c(Cl)cc(Cl)cc4Cl)CC3)nc(N)n2)cc1` [Example 220] was 75%; that for `CCCCCCC(=O)N1CCC(c2nc(N)nc3ccc(OC)cc23)CC1` [Example 103] was 44%; that for `COc1ccc(CC(=O)N2CCC(c3nc(N)nc4ccc(Cl)cc34)CC2)cc1` [Example 131] was 23%.
The value for `COc1ccc(Cc2cc(C3CCN(C(=O)c4cccc5ccccc45)CC3)nc(N)n2)cc1` [Example 211] was 80%; that for `Nc1nc(C2CCN(C(=O)c3cccnc3)CC2)c2ccccc2n1` [Example 50] was 18%; that for `COc1ccc(Cc2cc(C3CCN(C(=O)Cc4ccc(Cl)c(Cl)c4)CC3)nc(N)n2)cc1` [Example 241] was 95%.
For the molecule `COc1ccc(Cc2cc(C3CCN(C(=O)c4ccc(OC)c(OC)c4OC)CC3)nc(N)n2)cc1` [Example 213], the inhibition at 30 µM was determined as 43%.
As for `Nc1nc(C2CCN(C(=O)Cc3ccc(Cl)c(Cl)c3)CC2)c2ccccc2n1` [Example 96], the figure is 100%; as for `CCCCCCCCCC(=O)N1CCC(c2cc(-c3ccc(OC)cc3)nc(N)n2)CC1` [Example 156], 74%.
As for `COc1cccc(CC(=O)N2CCC(c3nc(N)nc4ccccc34)CC2)c1` [Example 78], the inhibition at 30 µM was determined as 10%.
The value for `CCCCCCCCCC(=O)N1CCC(c2nc(N)nc3ccccc23)CC1` [Example 23] was 67%; that for `COc1cc(C(=O)N2CCC(c3nc(N)nc4ccccc34)CC2)cc(OC)c1OC` [Example 72] was 32%; that for `COc1ccc(Cc2cc(C3CCN(C(=O)c4c(OC)ccc(OC)c4OC)CC3)nc(N)n2)cc1` [Example 214] was 13%.
Turning to `COc1ccc(Cc2cc(C3CCN(C(=O)Cc4ccccc4Cl)CC3)nc(N)n2)cc1` [Example 225], the inhibition at 30 µM was found to be 43%.
Regarding `COc1ccc(CC(=O)N2CCC(c3nc(N)nc4ccccc34)CC2)cc1` [Example 79], the inhibition at 30 µM is -3%.
As for `COc1ccc(Cc2cc(C3CCN(C(=O)c4ccccc4Cl)CC3)nc(N)n2)cc1` [Example 181], the inhibition at 30 µM is 26%.
For the molecule `CC(C)(C)C(=O)N1CCC(c2nc(N)nc3ccccc23)CC1` [Example 26], the inhibition at 30 µM is 19%.
`CCCCCCCCC(=O)N1CCC(c2nc(N)nc3ccccc23)CC1` [Example 22]: the inhibition at 30 µM turned out to be 64%.
As for `COc1ccc(Cc2cc(C3CCN(C(=O)CCN)CC3)nc(N)n2)cc1` [Example 287, 2-amino-4-[1-(3-aminopropanoyl)-4-piperidinyl]-6-(4-methoxyphenylmethyl)pyrimidine], the figure is 40%.
The value for `COc1ccc(Cc2cc(C3CCN(C(=O)Cc4ccc(Cl)cc4Cl)CC3)nc(N)n2)cc1` [Example 239] was 99%; that for `COc1ccc(CC(=O)N2CCC(c3cc(Cc4ccc(Cl)cc4)nc(N)n3)CC2)cc1` [Example 251] was 98%; that for `Nc1nc(-c2ccccc2)cc(C2CCN(C(=O)Cc3ccc(Cl)cc3)CC2)n1` [Example 143] was 55%.
As to `CCCCCCCC(=O)N1CCC(c2cc(-c3ccc(Cl)cc3)nc(N)n2)CC1` [Example 147], the inhibition at 30 µM was 55%.
For `CCC(=O)N1CCC(c2nc(N)nc3ccccc23)CC1` [Example 16], the inhibition at 30 µM came out at 4%.
As to `Nc1nc(C2CCN(C(=O)Cc3c(Cl)ccc(Cl)c3Cl)CC2)c2ccccc2n1` [Example 98], the inhibition at 30 µM came to 43%.
Turning to `Nc1nc(C2CCN(C(=O)c3c(Cl)cc(Cl)cc3Cl)CC2)c2ccccc2n1` [Example 75], the inhibition at 30 µM came to 92%.
As for `COc1ccc(Cc2cc(C3CCN(C(=O)Cc4ccccc4OC)CC3)nc(N)n2)cc1` [Example 222], the figure is 36%; as for `COc1ccc(C(=O)N2CCC(c3nc(N)nc4ccccc34)CC2)c(OC)c1OC` [Example 68], 8%; as for `CCCCCCCC(=O)N1CCC(c2cc(Cc3ccc(OC)cc3)nc(N)n2)CC1` [Example 168], 49%.
As to `COc1ccc(Cc2cc(C3CCN(C(=O)Cc4ccc(OC)c(OC)c4)CC3)nc(N)n2)cc1` [Example 237], the inhibition at 30 µM came out at 87%.
Turning to `Nc1nc(C2CCN(C(=O)Cc3ccc(Cl)cc3)CC2)c2cc(Cl)ccc2n1` [Example 132], the inhibition at 30 µM came out at 55%.
As for `Nc1nc(C2CCN(C(=O)Cc3ccc([N+](=O)[O-])cc3[N+](=O)[O-])CC2)c2ccccc2n1` [Example 97], the figure is 45%.
The value for `COc1ccc(Cc2cc(C3CCN(C(=O)C(C)(C)C)CC3)nc(N)n2)cc1` [Example 173] was 31%; that for `COc1ccc(Cc2cc(C3CCN(C(=O)c4c(Cl)ccc(Cl)c4Cl)CC3)nc(N)n2)cc1` [Example 219] was 75%.
The value for `COc1cccc(C(=O)N2CCC(c3nc(N)nc4ccccc34)CC2)c1OC` [Example 52] was 20%.
With `Nc1nc(Cc2ccc(Cl)cc2)cc(C2CCN(C(=O)Cc3ccc(Cl)cc3)CC2)n1` [Example 252], the inhibition at 30 µM turned out to be 96%.
Turning to `COc1ccc(Cc2cc(C3CCN(S(=O)(=O)Cc4ccccc4)CC3)nc(N)n2)cc1` [Example 277], the inhibition at 30 µM is 32%.
Turning to `COc1ccc(C(=O)N2CCC(c3nc(N)nc4ccccc34)CC2)cc1OC` [Example 56], the inhibition at 30 µM was -28%.
With `CCCCCCCCC(=O)N1CCC(c2cc(-c3ccc(Cl)cc3)nc(N)n2)CC1` [Example 148], the inhibition at 30 µM came out at 68%.
As for `COc1ccc(Cc2cc(C3CCN(C(=O)CCCl)CC3)nc(N)n2)cc1` [Example 174], the figure is 54%; as for `Nc1nc(-c2ccccc2)cc(C2CCN(C(=O)Cc3ccc([N+](=O)[O-])cc3)CC2)n1` [Example 144], 6%; as for `COc1ccc2nc(N)nc(C3CCN(C(=O)c4ccc(Cl)cc4)CC3)c2c1` [Example 113], -1%.
In the case of `CCCCCCCCCC(=O)N1CCC(c2cc(CCc3ccccc3)nc(N)n2)CC1` [Example 257], the inhibition at 30 µM stood at 90%.
Regarding `Nc1nc(Cc2ccc(Cl)cc2)cc(C2CCN(C(=O)c3ccc4c(c3)OCO4)CC2)n1` [Example 250], the inhibition at 30 µM is 91%.
The value for `Nc1nc(-c2ccc(Cl)cc2)cc(C2CCN(C(=O)c3ccccc3)CC2)n1` [Example 6, 2-Amino-4-(1-benzoyl-4-piperidinyl)-6-(4-chlorophenyl)pyrimidine] was 78%.
The value for `COc1ccc(Cc2cc(C3CCN(C(=O)Cc4c(Cl)ccc(Cl)c4Cl)CC3)nc(N)n2)cc1` [Example 244] was 98%.
